# Test results published in patent US5053070A, “Pyrimidine derivatives, preparation processes thereof, herbicide containing the same, and herbicidal compositions containing the same along with other active ingredient” (Mitsui Toatsu Chemicals, Incorporated, priority 1988, dated 1991).
# Experiments:
# Assay type in all cases: in vivo
# peanut = experiment: Upland foliar application test (Test 3), crop injury; settings: 30 g ai/a, foliar spray at 2-3 leaves, 30th day
# Summary of the method: (§1)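 Steps: sow in upland soil, greenhouse; grow to 2-3 leaf stage; spray leaves with water-diluted emulsion at 5 l per are using a ULV sprayer; assess effects on day 30.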
# cotton = experiment: as above; settings: 30 g ai/a, foliar spray at 2-3 leaves, 30th day
# Summary of the method: as §1
# soybean = experiment: as above; settings: 30 g ai/a, foliar spray at 2-3 leaves, 30th day
# Summary of the method: as §1
# Sagittaria pygmaea = experiment: Treatment of soil under submerged condition, post-emergence (Test 5); settings: 30 g ai/a granule, 30 days later
# Summary of the method: (§2)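 Granule applied to submerged greenhouse pots at two-leaf barnyardgrass; transplanted 2–3-leaf rice present; weed damage and rice injury graded 30 days on.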
# barnyardgrass [1] = experiment: as above; settings: 30 g ai/a granule, post-emergence (barnyardgrass two-leaf stage), 30 days later
# Summary of the method: as §2
# bulrush = experiment: as above; settings: 30 g ai/a granule, 30 days later
# Summary of the method: as §2
# rice [2] = experiment: Treatment of soil under submerged condition, post-emergence (Test 5), injury; settings: 30 g ai/a granule, 30 days later
# Summary of the method: as §2
# redroot pigweed [3] = experiment: Upland foliar application test by mixed formulations (Test 7); settings: Amaranthus retroflexus, 720 h, applied alone, 30th day, read-out: Herbicidal effects (%) Redrood pigweed Ea; for pest or weed control at 1000 g/ha: 1 kg/ha; for pest or weed control at 300 g/ha: 0.3 kg/ha
# Summary of the method: (§3)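 Foliar spray of two-compound mixed emulsion, diluted with water, at 5 l per are via ULV sprayer onto weeds at 2–3 leaf stage in upland soil pots, greenhouse. Effect observed 30 days after spraying. Measured mixture activity (Ea) compared with Colby expected value (Ec) derived from single-ingredient growth inhibition rates.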
# green foxtail [4] = experiment: as above; settings: Setaria viridis, 720 h, applied alone, 30th day, read-out: Herbicidal effects (%) Green foxtail Ea; for pest or weed control at 1000 g/ha: 1 kg/ha; for pest or weed control at 300 g/ha: 0.3 kg/ha
# Summary of the method: as §3
# johnsongrass [5] = experiment: as above; settings: Sorghum halepense, 720 h, applied alone, 30th day, read-out: Herbicidal effects (%) Johnsongrass Ea; for pest or weed control at 1000 g/ha: 1 kg/ha; for pest or weed control at 300 g/ha: 0.3 kg/ha
# Summary of the method: as §3
# morningglories = experiment: as above; settings: Ipomoea, 720 h, applied alone, 30th day, read-out: Herbicidal effects (%) Morningglory Ea; for pest or weed control at 1000 g/ha: 1 kg/ha; for pest or weed control at 300 g/ha: 0.3 kg/ha
# Summary of the method: as §3
# rice [6] = experiment: Treatment of soil under submerged condition, pre-emergence (Test 4), injury; settings: 30 g ai/a granule, 30 days later
# Summary of the method: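 Under submerged conditions, pots carrying weed propagules and transplanted young rice (2–3 leaves) were given a granulated test composition one day after planting, ahead of weed emergence. Plants grew in a greenhouse, with weed emergence and crop injury read 30 days after treatment.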
# common lambsquarters = experiment: Upland soil application test (Test 2); settings: 30 g ai/a, soil spray before emergence, 30 days later
# Summary of the method: (§4)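 Soil-surface application of water-diluted wettable powder at 10 l per are, made one day after seeding and ahead of weed emergence. Plants stayed in the greenhouse for 30 days; injury was rated by air-dried weight versus untreated pots.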
# foxtail meadow = experiment: Upland soil application test (Test 2); settings: 30 g ai/a, soil spray before emergence, 30 days later
# Summary of the method: as §4
# redroot pigweed [7] = experiment: Upland soil application test (Test 2); settings: 30 g ai/a, soil spray before emergence, 30 days later
# Summary of the method: as §4
# green foxtail [8] = experiment: Upland soil application test (Test 2); settings: 30 g ai/a, soil spray before emergence, 30 days later
# Summary of the method: as §4
# barnyardgrass [9] = experiment: Upland soil application test (Test 2); settings: 30 g ai/a, soil spray before emergence, 30 days later
# Summary of the method: as §4
# johnsongrass [10] = experiment: Upland soil application test (Test 2); settings: 30 g ai/a, soil spray before emergence, 30 days later
# Summary of the method: as §4
# large crabgrass = experiment: Upland soil application test (Test 2); settings: 30 g ai/a, soil spray before emergence, 30 days later
# Summary of the method: as §4
SMILES,Injury Peanut (peanut),Injury Cotton (cotton),Injury Soybean (soybean),Herbicidal effects Sagittaria Pygmaea (Sagittaria pygmaea),Herbicidal effects Barnyardgrass (barnyardgrass [1]),Herbicidal effects Bulrush (bulrush),Injury Rice (rice [2]),pest or weed control at 1000 g/ha (redroot pigweed [3]) [%],Injury Rice (rice [6]),Herbicidal effects Common lambsquarters (common lambsquarters),Herbicidal effects Foxtail meadow (foxtail meadow),Herbicidal effects Redroot pigweed (redroot pigweed [7]),Herbicidal effects Green foxtail (green foxtail [8]),Herbicidal effects Barnyardgrass (barnyardgrass [9]),Herbicidal effects Johnsongrass (johnsongrass [10]),Herbicidal effects Large crabgrass (large crabgrass),pest or weed control at 300 g/ha (redroot pigweed [3]) [%],pest or weed control at 300 g/ha (green foxtail [4]) [%],pest or weed control at 300 g/ha (johnsongrass [5]) [%],pest or weed control at 300 g/ha (morningglories) [%],also measured
COc1cc(OC)nc(Oc2ccccc2C=NOCC=Cc2ccccc2C(F)(F)F)n1 [compound 32],0 (91-100 (No damages)),0 (91-100 (No damages)),0 (91-100 (No damages)),4 (6-10 (Severe damages)),5 (0-5 (Death)),4 (6-10 (Severe damages)),1 (71-90 (Slight damages)),50,0 (91-100 (No damages)),4 (6-10 (Severe damages)),5 (0-5 (Death)),5 (0-5 (Death)),5 (0-5 (Death)),5 (0-5 (Death)),5 (0-5 (Death)),5 (0-5 (Death)),,,,,pest or weed control at 1000 g/ha (green foxtail [4]): 30%; pest or weed control at 1000 g/ha (johnsongrass [5]): 30%; pest or weed control at 1000 g/ha (morningglories): 0%
COc1cc(OC)nc(Oc2ccccc2C=NOC(C)C)n1 [compound 6],0 (91-100 (No damages)),0 (91-100 (No damages)),0 (91-100 (No damages)),3 (11-40 (Medium damages)),4 (6-10 (Severe damages)),4 (6-10 (Severe damages)),0 (91-100 (No damages)),50,0 (91-100 (No damages)),4 (6-10 (Severe damages)),5 (0-5 (Death)),3 (11-40 (Medium damages)),5 (0-5 (Death)),4 (6-10 (Severe damages)),5 (0-5 (Death)),4 (6-10 (Severe damages)),,,,,pest or weed control at 1000 g/ha (green foxtail [4]): 30%; pest or weed control at 1000 g/ha (johnsongrass [5]): 30%; pest or weed control at 1000 g/ha (morningglories): 0%
"COc1cc(OC)nc(Oc2ccccc2C=NO)n1 [Compound No. 24, 2-(4,6-dimethoxy-2-pyrimidinyloxy)-benzaloxime]",0 (91-100 (No damages)),1 (71-90 (Slight damages)),1 (71-90 (Slight damages)),4 (6-10 (Severe damages)),5 (0-5 (Death)),5 (0-5 (Death)),1 (71-90 (Slight damages)),,1 (71-90 (Slight damages)),4 (6-10 (Severe damages)),5 (0-5 (Death)),4 (6-10 (Severe damages)),5 (0-5 (Death)),4 (6-10 (Severe damages)),5 (0-5 (Death)),4 (6-10 (Severe damages)),50,20,20,0,
COc1cc(OC)nc(Oc2ccccc2C=NOCC=Cc2ccccc2C)n1 [Compound No. 39],0 (91-100 (No damages)),0 (91-100 (No damages)),0 (91-100 (No damages)),4 (6-10 (Severe damages)),5 (0-5 (Death)),4 (6-10 (Severe damages)),0 (91-100 (No damages)),,1 (71-90 (Slight damages)),4 (6-10 (Severe damages)),5 (0-5 (Death)),5 (0-5 (Death)),5 (0-5 (Death)),4 (6-10 (Severe damages)),5 (0-5 (Death)),5 (0-5 (Death)),50,50,50,10,
C=C(Cl)CON=Cc1ccccc1Oc1nc(OC)cc(OC)n1 [Compound No. 14],0 (91-100 (No damages)),0 (91-100 (No damages)),0 (91-100 (No damages)),4 (6-10 (Severe damages)),5 (0-5 (Death)),5 (0-5 (Death)),1 (71-90 (Slight damages)),,0 (91-100 (No damages)),4 (6-10 (Severe damages)),5 (0-5 (Death)),4 (6-10 (Severe damages)),5 (0-5 (Death)),5 (0-5 (Death)),5 (0-5 (Death)),5 (0-5 (Death)),85,30,30,0,
COc1cc(OC)nc(Oc2ccccc2C=NOCC=Cc2ccc(Cl)cc2)n1 [Compound No. 28],0 (91-100 (No damages)),0 (91-100 (No damages)),0 (91-100 (No damages)),4 (6-10 (Severe damages)),5 (0-5 (Death)),4 (6-10 (Severe damages)),0 (91-100 (No damages)),,0 (91-100 (No damages)),4 (6-10 (Severe damages)),5 (0-5 (Death)),4 (6-10 (Severe damages)),5 (0-5 (Death)),4 (6-10 (Severe damages)),5 (0-5 (Death)),4 (6-10 (Severe damages)),50,30,30,0,
